We go through 38 substances from patent US20250213707A1, “COMPOUND FOR INCREASING EFFICACY OF ONCOLYTIC VIRUSES” (ABLEVIA BIOTECH GMBH, priority 2022, published 2025).

The first assay relates to IgG from human donors (anti-AAV antibodies). Description: Screen for anti-AAV antibodies in human sera, 2452 linear 15-amino-acid AAV peptides on microarrays (Table 1). In kind it is binding. The arrangement: key to group III: X: the deduplicated aggregate of the respective top 50 peptide hits for each donor was compiled and designated as group III. To be noted: X = peptide belongs to the deduplicated aggregate of the top 50 peptide hits for each donor; linear 15-amino-acid AAV peptides, IgG binding by fluorescence. The procedure: 2452 linear peptides derived from the sequences of 16 different AAVs and with a sequence length of 15 amino-acids each were synthesized.
Samples obtained from human donors were screened for antibodies against these AAV-derived peptides immobilized on microarrays. To this end, IgG was prepared from blood obtained from the human donors by protein G purification. Each IgG sample was incubated with the peptide microarrays and Ig binding signals were detected by fluorescence. All antibody binding signals to the peptides on the arrays were background subtracted and ranked for each sample and a deduplicated aggregate of the respective top 250 peptide hits for each donor with the corresponding protein sequence of origin (as obtained from UniProt or other sources) was compiled (designated as group IV). Further, the deduplicated aggregate of the respective top 50 peptide hits for each donor was compiled and designated as group III. Further, the deduplicated aggregate of the respective top 25 peptide hits for each donor was compiled and designated as group II. Finally, the deduplicated aggregate of the respective top 10 peptide hits for each donor was compiled and designated as group I.
Altogether, group I contains 110 distinct peptide hits (assigned to the corresponding AAV vectors in Table 1), group II contains 289 distinct peptide hits, group III contains 428 distinct peptide hits and group IV contains 1271 distinct peptide hits. Evidently, group I is a subset of group II which in turn is a subset of group III which in turn is a subset of group IV. Groups I-IV correspond to the top 4.4%, […], 17.5% and 51.8%, respectively, of all peptides screened.
As to “335 (VKEVTQNDGTTTIAN; REGION 1..15: note = peptide derived from viral capsid protein) [compound 335]”, the “group III” value was “X”.
Consider “336 (VTQNDGTTTIANNLT; REGION 1..15: note = peptide derived from viral capsid protein) [compound 336]”, for which the “group III” value is given as “X”.
Take “337 (ADNNEGADGVGNSSG; REGION 1..15: note = peptide derived from viral capsid protein) [compound 337]”: the “group III” value is “X”.
For the substance “338 (PLGLVEEPVKTAPGK; REGION 1..15: note = peptide derived from viral capsid protein) [compound 338]”, the “group III” value is given as “X”.
With “339 (GNNFTFSYTFEDVPF; REGION 1..15: note = peptide derived from viral capsid protein) [compound 339]”, the “group III” value is “X”.
In the case of “340 (FSYTFEDVPFHSSYA; REGION 1..15: note = peptide derived from viral capsid protein) [compound 340]”, the “group III” value is given as “X”.
“341 (TFSYTFEDVPFHSSY; REGION 1..15: note = peptide derived from viral capsid protein) [compound 341]”: the “group III” value is recorded as “X”.
Regarding “343 (TFEDVPFHSSYAHSQ; REGION 1..15: note = peptide derived from viral capsid protein) [compound 343]”, the “group III” value is recorded as “X”.
Regarding “346 (TVAVNLQSSSTDPAT; REGION 1..15: note = peptide derived from viral capsid protein) [compound 346]”, the “group III” value was “X”.
As to “347 (AVNLQSSSTDPATGD; REGION 1..15: note = peptide derived from viral capsid protein) [compound 347]”, the “group III” value was “X”.
As to “348 (NHYFGYSTPWGYFDF; REGION 1..15: note = peptide derived from viral capsid protein) [compound 348]”, the “group III” value is “X”.
On the same count and under the same terms, the same measure for “349 (GSQAVGRSSFYCLEY; REGION 1..15: note = peptide derived from viral capsid protein) [compound 349]”: “X”; for “350 (TQYSTGQVSVEIEWE; REGION 1..15: note = peptide derived from viral capsid protein) [compound 350]”: “X”.
In the case of “353 (TPWGYFDFNRFHCHF; REGION 1..15: note = peptide derived from viral capsid protein) [compound 353]”, the “group III” value is “X”.
On to “354 (YFDFNRFHCHFSPRD; REGION 1..15: note = peptide derived from viral capsid protein) [compound 354]”, for which the “group III” value is given as “X”.
Still for that read-out and setting: as for “356 (YSTGQVSVEIEWELQ; REGION 1..15: note = peptide derived from viral capsid protein) [compound 356]”, the entry is “X”; as for “357 (SLDRLMNPLIDQYLY; REGION 1..15: note = peptide derived from viral capsid protein) [compound 357]”, “X”; as for “359 (SVPDPQPLGEPPATP; REGION 1..15: note = peptide derived from viral capsid protein) [compound 359]”, “X”.
On to “361 (YSTPWGYFDFNRFHC; REGION 1..15: note = peptide derived from viral capsid protein) [compound 361]”, for which the “group III” value is “X”.
Same read-out and setting: as for “362 (AHQGCLPPFPADVFM; REGION 1..15: note = peptide derived from viral capsid protein) [compound 362]”, the entry is “X”.
In the case of “363 (ASFITQYSTGQVSVE; REGION 1..15: note = peptide derived from viral capsid protein) [compound 363]”, the “group III” value is on record as “X”.
Turning to “366 (MVWQDRDVYLQGPIW; REGION 1..15: note = peptide derived from viral capsid protein) [compound 366]”, the “group III” value is reported as “X”.
The same measure, in the same setting: as for “369 (EYQLPYVLGSAHQGC; REGION 1..15: note = peptide derived from viral capsid protein) [compound 369]”, the entry is “X”.
Regarding “370 (FITQYSTGQVSVEIE; REGION 1..15: note = peptide derived from viral capsid protein) [compound 370]”, the “group III” value is “X”.
The same measure, in the same setting: as for “380 (SSYAHSQSLDRLMNP; REGION 1..15: note = peptide derived from viral capsid protein) [compound 380]”, the entry is “X”; as for “382 (FHSSYAHSQSLDRLM; REGION 1..15: note = peptide derived from viral capsid protein) [compound 382]”, “X”; as for “383 (FNGLDKGEPVNAADA; REGION 1..15: note = peptide derived from viral capsid protein) [compound 383]”, “X”.
With “384 (HSSYAHSQSLDRLMN; REGION 1..15: note = peptide derived from viral capsid protein) [compound 384]”, the “group III” value was “X”.
For the substance “385 (TTSTRTWALPTYNNH; REGION 1..15: note = peptide derived from viral capsid protein) [compound 385]”, the “group III” value was “X”.

Still in this assay, the particulars now being: X = peptide in the deduplicated aggregate of the top 50 peptide hits for each donor (top 17.5% of all peptides screened); linear 15-amino-acid AAV peptides on microarrays, human donor IgG, fluorescence.
For “406 (NNNSEFAWPGASSWA; REGION 1..15: note = peptide derived from viral capsid protein) [compound 406]”, the “group III” value was “X”.
Same read-out and setting: as for “407 (NTPVPADPPTAFNKD; REGION 1..15: note = peptide derived from viral capsid protein) [compound 407]”, the entry is “X”; as for “408 (STTVTQNNNSEFAWP; REGION 1..15: note = peptide derived from viral capsid protein) [compound 408]”, “X”.
For “410 (ENVPFHSSYAHSQSL; REGION 1..15: note = peptide derived from viral capsid protein) [compound 410]”, the “group III” value was “X”.
In the case of “411 (ILIKNTPVPADPPTA; REGION 1..15: note = peptide derived from viral capsid protein) [compound 411]”, the “group III” value was “X”.
Still for that read-out and setting: as for “414 (GNGLDKGEPVNAADA; REGION 1..15: note = peptide derived from viral capsid protein) [compound 414]”, the entry is “X”; as for “416 (LNSFITQYSTGQVSV; REGION 1..15: note = peptide derived from viral capsid protein) [compound 416]”, “X”.
Take “424 (ENSKRWNPEIQYTSN; REGION 1..15: note = peptide derived from viral capsid protein) [compound 424]”: the “group III” value was “X”.
Regarding “425 (ELQKENSKRWNPEIQ; REGION 1..15: note = peptide derived from viral capsid protein) [compound 425]”, the “group III” value is reported as “X”.
